Assays:
[1] = system: Common Cutworm (Spodoptera litura); experiment: Insecticidal test on common cutworm (Spodoptera litura); type: in vivo; conditions: 144 h, cabbage leaf immersed, second-instar larvae, counted 6 days after release, 25° C.
Description: Insecticidal Test on Common Cutworm (Spodoptera litura)
(§1) A piece of cabbage leaf was immersed for 30 seconds in a liquid chemical prepared by diluting a test compound to a prescribed concentration. After air-drying, the piece was put into a 7-cm polyethylene cup and second-instar larvae of common cutworms were released thereinto. The polyethylene cups were set in an isothermal chamber thermostated at 25° C. From the release 6 days later, the dead and alive were counted. The test was carried out with two replications of 5 insects per a plot.

[2] = system: Diamondback Moth (Plutella xylostella); experiment: Insecticidal test on diamondback moth (Plutella xylostella); type: in vivo; conditions: 144 h, cabbage leaf immersed, second-instar larvae, counted 6 days after release, 25° C.
Description: Insecticidal Test on Diamondback Moth (Plutella xylostella)
as §1, with “diamondback moths” for “common cutworms”

Row | SMILES | mortality at 100 ppm [1] | mortality at 100 ppm [2]
1 | Cc1cc(OS(=O)(=O)C(F)(F)F)cc(Br)c1NC(=O)c1cccc(NC(=O)c2ccccc2)c1 [Compound No. 1-369, N-(2-bromo-6-methyl-4-trifluoromethanesulfonyloxyphenyl) 3-(benzoylamino)benzamide] | ≥ 70% | ≥ 70%
2 | O=C(Nc1cccc(C(=O)Nc2ccc3ncsc3c2)c1)c1ccccc1 [Compound No. 1-492, N-benzothiazol-6-yl 3-(benzoylamino)benzamide] | ≥ 70% | –
3 | O=C(Nc1c(Br)cc(OC(F)(F)C(F)C(F)(F)F)cc1Br)c1cccc(NC(=O)c2ccccc2F)c1 (stereo not drawn) [Compound No. 2-8, N-(2,6-dibromo-4-(1,1,2,3,3,3-hexafluoropropoxy)phenyl) 3-[(2-fluorobenzoyl)amino]benzamide] | ≥ 70% | ≥ 70%
4 | O=C(Nc1cccc(C(=O)Nc2ccc(OC(C(F)(F)F)C(F)(F)F)nc2Br)c1)c1ccccc1 [Compound No. 1-387, N-[2-bromo-6-(2,2,2-trifluoro-1-trifluoromethylethoxy)-pyridin-3-yl]3-(benzoylamino)benzamide] | ≥ 70% | ≥ 70%
5 | Cc1cc(C(F)(C(F)(F)F)C(F)(F)F)cc(C)c1NC(=O)c1cccc(Nc2ccc([N+](=O)[O-])cc2)c1 [Compound No. 5-9, N-[2,6-dimethyl-4-(heptafluoroisopropyl)phenyl]-3-(4-nitrophenylamino)-benzamide] | ≥ 70% | ≥ 70%

— patent US8067638B2, “Amide derivative and insecticide containing the same” (Mitsui Chemicals, Inc., priority 2005, dated 2011)
